# Data published in patent US6369297B1, “Inducible one-component plant gene tagging” (Academia Sinica, priority 2000, dated 2002).
# Columns and labels:
# [1] = system: transformed tobacco plants; assay: Germination frequency of R1 progeny and fruiting of SA-treated transformed tobacco plants; format: in vivo
# Experimental: (§1) An important feature of an inducible transposable element is its susceptibility to induced transposition in germinal tissue. Such susceptibility markedly increases the probability of success of transposon tagging in the isolation of important plant genes. To determine the effectiveness of INAc for gene tagging, the induction of transposition in germ-line tissue was studied using 14 transformed tobacco plants from lines IA, IM, IN, and IP. […] The R1 progeny was analyzed by comparing the germination frequency apparent on normal germination medium with that observed on germination medium containing hygromycin B, as summarized in Table 3.
# Capsules are designated A through E.
# [2] = system: INAc transposition (PR-1a::TPase); assay: SA induction of INAc transposition in flowering tissue; LUC assay of HygR R1 progeny; format: in vivo, tobacco
# Experimental: (§2) Assay of reporter gene activities. Luciferase activity was determined as described in Howell et al., “Use of the firefly luciferase gene as a reporter of gene expression in plants,” In: Gelvin et al., eds, Plant Molecular Biology Manual, pp. B8/1-B8/11, Kluwer Academic Publishers, Dordrecht, 1989; using a Lumat LB 9501 luminometer (Berthold, Munich, Germany). For imaging of luciferase activity, hygromycin-resistant (Hyg^R) seedlings were sprayed with luciferin, incubated in the dark for 5 minutes, and then placed under a charge-coupled device camera (ChemiImager 4000; Alpha Innotech, San Leandro, Calif.) for detection of luminescence. Image acquisition and processing were performed with AlphaEase software (Alpha Innotech). Exposure time was 30 minutes.
# as §1, with “Analysis of SA-induced transposition in R1 progeny of transformed tobacco plants. An” for “An”, “The flowering tissues of plants were sprayed with SA at concentrations of 50, 5, or 1 mM, and after 2 hours these tissues were watered to remove SA. […] The” for “The”
# The proportion of LUC^+ seedlings after selection with hygromycin B was next determined. […] A large proportion of LUC^+ seedlings was apparent for transformed plants treated with SA (Table 3).
# With this approach, the efficiency of INAc transposition was determined to be 0.2, 0.7, and 3.1% for transformed plants treated with 1, 5, and 50 mM SA, respectively, as shown in Table 4.
# [3] = system: INAc transposition (PR-1a::TPase); assay: SA induction of INAc transposition in transgenic tobacco calli (luciferase activity of regenerated shoots); format: cell-based; conditions: for shoots exhibiting high luciferase activity: line IK; for shoots with luciferase activity (transposition frequency): lines IA, IC, IM1, IN1, IP1, IR1; for shoots exhibiting luciferase activity out of shoots from SA-treated calli: 0.1 and 1 mM SA pooled
# Experimental: as §2
# Induction of INAc transposition. […] The effect of SA on INAc transposition was determined by incubating Hyg^R calli with a diameter of 0.5 to 1 cm for various times on callus regeneration medium containing either 0.1 or 1 mM SA. The calli for the transformed lines IA, IC, and IK were directly divided from the primary regenerated calli, which were large and generated many primary transformed shoots. For transformed lines IF, IM, IN, IP, and IR, the calli were obtained from the primary transformants IF1, IM1, IN1, IP1, and IR1. Leaf disks were excised and incubated on callus regeneration medium to yield enough calli for induction experiments. The calli were treated with 0.1 mM SA for 60 days, or were incubated with 1 mM SA for 10 days and then transferred to normal callus regeneration medium for an additional 50 days. As a control, calli were incubated on normal callus regeneration medium for 60 days. Luciferase activity was measured in the shoots that developed from the calli during incubation and was expressed as −, +, ++, or +++ as described in Table 2.
# The numerical values in Table 2 indicate the number of LUC^+ shoots that were regenerated from SA-treated tobacco calli. Symbols denoting the amount of luciferase activity (RLU per microgram of total protein) are as follows: (−) <50 (with no typical luciferase activity kinetics); (+) 50 to 500 RLU; (++) 500 to 5000 RLU; and (+++)>5000 RLU.
# INAc transposition = assay: 5-azacytidine as second inducer of transposition in tobacco seedlings harboring INAc; format: in vivo; conditions: 0.1 mM 5-azacytidine combined with 1 mM SA
# Text: Other inducers. Given that 5-azacytidine was recently shown to enhance Ac excision in transformed plants (Scortecci et al., Plant Cell Physiol. 38:336-343, 1997), the use of this agent was examined as a second inducer to trigger transposition events in tobacco seedlings harboring INAc.
compound,measurement,setting,value
"O=C(O)c1ccccc1O [SA, salicylic acid]",frequency of fruiting,"[1]; 50 mM SA sprayed on flowering tissues, watered off after 2 hours",marked decrease
same,germination frequency of R1 progeny,"[1]; 50 mM SA, plants IA5 and IP6",low germination frequencies
same,S: Percentage of Hyg R progeny that were LUC+,"[2]; 1 mM SA, mean of tobacco lines IA, IM, IN, IP",29%
same,number of seedlings showing high luciferase activity,"[2]; 1 mM SA, of 1021 seedlings",2 seedlings
same,S: Percentage of Hyg R progeny that were LUC+,"[2]; 1 mM SA, tobacco line IA",33%
same,G: Percentage of Hyg R progeny that exhibited high luciferase activity,"[2]; 1 mM SA, tobacco line IA (plant IA7)",0.4%
same,S: Percentage of Hyg R progeny that were LUC+,"[2]; 1 mM SA, tobacco line IM",11%
same,G: Percentage of Hyg R progeny that exhibited high luciferase activity,"[2]; 1 mM SA, tobacco line IM (plant IM4)",0.4%
same,G: Percentage of Hyg R progeny that exhibited high luciferase activity,"[2]; 1 mM SA, tobacco line IN",0%
same,S: Percentage of Hyg R progeny that were LUC+,"[2]; 1 mM SA, tobacco line IN",9%
same,G: Percentage of Hyg R progeny that exhibited high luciferase activity,"[2]; 1 mM SA, tobacco line IP",0%
same,S: Percentage of Hyg R progeny that were LUC+,"[2]; 1 mM SA, tobacco line IP",62%
same,HygR seedlings exhibiting high luciferase activity out of seedlings screened,"[2]; 5 mM SA, capsule B of plant IP9",12 out of 202
same,S: Percentage of Hyg R progeny that were LUC+,"[2]; 5 mM SA, mean of tobacco lines IA, IM, IN, IP",47%
same,number of seedlings showing high luciferase activity,"[2]; 5 mM SA, of 1000 seedlings",7 seedlings
same,S: Percentage of Hyg R progeny that were LUC+,"[2]; 5 mM SA, tobacco line IA",60%
same,G: Percentage of Hyg R progeny that exhibited high luciferase activity,"[2]; 5 mM SA, tobacco line IA (plant IA6)",0.4%
same,S: Percentage of Hyg R progeny that were LUC+,"[2]; 5 mM SA, tobacco line IM",45%
same,G: Percentage of Hyg R progeny that exhibited high luciferase activity,"[2]; 5 mM SA, tobacco line IM (plant IM5)",0.8%
same,G: Percentage of Hyg R progeny that exhibited high luciferase activity,"[2]; 5 mM SA, tobacco line IN",0%
same,S: Percentage of Hyg R progeny that were LUC+,"[2]; 5 mM SA, tobacco line IN",15%
same,S: Percentage of Hyg R progeny that were LUC+,"[2]; 5 mM SA, tobacco line IP",68%
same,G: Percentage of Hyg R progeny that exhibited high luciferase activity,"[2]; 5 mM SA, tobacco line IP (plant IP9)",1.6%
same,S: Percentage of Hyg R progeny that were LUC+,"[2]; 50 mM SA, mean of tobacco lines IA, IP",75%
same,number of seedlings showing high luciferase activity,"[2]; 50 mM SA, of 32 seedlings",1 seedling
same,S: Percentage of Hyg R progeny that were LUC+,"[2]; 50 mM SA, tobacco line IA",70%
same,G: Percentage of Hyg R progeny that exhibited high luciferase activity,"[2]; 50 mM SA, tobacco line IA (plant IA5)",3.7%
same,G: Percentage of Hyg R progeny that exhibited high luciferase activity,"[2]; 50 mM SA, tobacco line IP",0%
same,S: Percentage of Hyg R progeny that were LUC+,"[2]; 50 mM SA, tobacco line IP",100%
same,effect of SA concentration on frequency of LUC+ seedlings / transposition events in floral tissues,"[2]; 1, 5, 50 mM SA",dose-dependent manner
same,LUC assay: LUC+ seedlings (activity class)/HygR seedlings assayed,"[2]; plant 1M5, flowers sprayed 5 mM SA, R1 progeny, capsules A-E in successive rows",30+152
same,seedlings exhibiting luciferase activity,"[2]; plants exposed to SA (1, 5 or 50 mM) pooled, 785 out of 2053 seedlings",38%
same,number of seedlings showing high luciferase activity,"[2]; plants exposed to SA (1, 5 or 50 mM) pooled, of 2053 seedlings",10 seedlings
same,shoots exhibiting medium (++) luciferase activity,"[3]; 0.1 mM SA, IA and IP1 calli, two out of nine shoots",22%
same,shoots exhibiting high luciferase activity,"[3]; 0.1 mM SA, 1 out of 9 shoots",11%
same,shoots with luciferase activity (transposition frequency),"[3]; 0.1 mM SA, 33 out of 45 shoots",73%
same,induction of PR-1a::TPase expression and transposition events,"[3]; 0.1 mM SA, tobacco calli",sufficient to induce the expression of PR-1a::TPase
same,shoots exhibiting medium (++) or high (+++) luciferase activity,"[3]; 1 mM SA, IA and IP1 calli, 13 out of 25 shoots",52%
same,shoots exhibiting high luciferase activity,"[3]; 1 mM SA, 4 out of 16 shoots",25%
same,shoots with luciferase activity (transposition frequency),"[3]; 1 mM SA, 27 out of 70 shoots",39%
same,luciferase activity in shoots regenerated from callus,"[3]; tobacco callus IC, presence of SA",not detected
same,luciferase activities of induced shoots versus uninduced shoots,[3]; tobacco line IK,slightly higher
same,shoots exhibiting luciferase activity out of shoots from SA-treated calli,[3]; tobacco line IM1,11 out of 24
same,shoots exhibiting luciferase activity out of shoots from SA-treated calli,[3]; tobacco line IN1,11 out of 20
same,shoots exhibiting luciferase activity out of shoots from SA-treated calli,[3]; tobacco line IP,15 out of 17
same,shoots exhibiting luciferase activity out of shoots from SA-treated calli,[3]; tobacco line IR1,12 out of 20
Nc1ncn([C@@H]2O[C@H](CO)[C@@H](O)[C@H]2O)c(=O)n1 [5-azacytidine],transposition efficiency versus treatment with SA alone,INAc transposition,higher
